Measured values reported in US6348587B1, “2′-Fluoronucleosides” (Emory University, priority 1998, dated 2002).
Where a name gives a salt, the structure may show the parent alone.

Legend:
[1] = system: CEM cells; assay: Cytotoxicity in CEM cells; assay type: cell-based, human
Method: (§1) Antiviral and cytotoxicity assays: Anti-HIV-1 activity of the compounds is determined in human peripheral blood mononuclear (PBM) cells as described previously (Schinazi, R. F.; McMillan, A.; Cannon, D.; Mathis, R.; Lloyd, R. M. Jr.; Peck, A.; Sommadossi, J.-P.; St. Clair, M.; Wilson, J.; Furman, P. A.; Painter, G.; Choi, W.-B.; Liotta, D. C. Antimicrob. Agents Chemother. 1992, 36, 2423; Schinazi, R. F.; Sommadossi, J.-P.; Saalmann, V.; Cannon, D.; Xie, M.-Y.; Hart, G.; Smith, G.; Hahn, E. Antimicrob. Agents Chemother. 1990, 34, 1061). Stock solutions (20-40 mM) of the compounds were prepared in sterile DMSO and then diluted to the desired concentration in complete medium. […] Cells are infected with the prototype HIV-1LAI at a multiplicity of infection of 0.01. Virus obtained from the cell supernatant are quantitated on day 6 after infection by a reverse transcriptase assay using poly(rA)n.oligo(dT)12-18 as template-primer. The DMSO present in the diluted solution (<0.1%) should have no effect on the virus yield. The toxicity of the compounds can be assessed in human PBM, CEM, and Vero cells. The antiviral EC50 and cytotoxicity IC50 is obtained from the concentration-response curve using the median effective method described by Chou and Talalay (Adv. Enzyme Regul. 1984, 22, 27).
The extent of anticancer activity can be easily assessed by assaying the compound according to the procedure below in a CEM cell or other tumor cell line assay. CEM cells are human lymphoma cells (a T-lymphoblastoid cell line that can be obtained from ATCC, Rockville, Md.). […] The toxicity is measured as IC50 micromolar). […] Drug solutions, including cycloheximide as a positive control, are plated in triplicate in 50 μl growth medium at 2 times the final concentration and allowed to equilibrate at 37° C. in a 5% CO2 incubator. Log phase cells are added in 50 μl growth medium to a final concentration of 2.5×10^3 (CEM and SK-MEL-28), 5×10^3 (MMAN, MDA-MB-435s, SKMES-1, DU-145, LNCap), or 1×10^4 (PC-3, MCF-7) cells/well and incubated for 3 (DU-145, PC-3, MMAN), 4 (MCF-7, SK-MEL-28, CEM), or 5 (SK-MES-1, MDA-MB-435s, LNCaP) days at 37° C. under a 5% CO2 air atmosphere. Control wells include media alone (blank) and cells plus media without drug. After growth period, 15 μl of Cell Titer 96 kit assay dye solution (Promega, Madison, Wis.) are added to each well and the plates are incubated 8 hr at 37° C. in a 5% CO2 incubator. Promega Cell Titer 96 kit assay stop solution is added to each well and incubated 4-8 hr in the incubator. Absorbance is read at 570 nm, blanking on the medium-only wells using a Biotek Biokinetics plate reader (Biotek, Winooski, Vt.). Average percent inhibition of growth compared to the untreated control is calculated. IC50, IC90, slope and r value are calculated by the method of Chou and Talalay. Chou T-C, Talalay P. Quantitative analysis of dose-effect relationships: The combined effects of multiple drugs or enzyme inhibitors. Adv Enzyme Regul 1984, 22:27-55.

[2] = system: HIV-1 (strain LAV); assay: Anti-HIV-1 activity in PHA-stimulated human PBM cells (virus quantitated by reverse transcriptase assay, day 6); assay type: cell-based; conditions: HIV-1 in human PBM cells
Method: The ability of nucleosides to inhibit HIV can be measured by various experimental techniques. One technique, described in detail below, measures the inhibition of viral replication in phytohemagglutinin (PHA) stimulated human peripheral blood mononuclear (PBM) cells infected with HIV-1 (strain LAV). The amount of virus produced is determined by measuring the virus-coded reverse transcriptase enzyme. The amount of enzyme produced is proportional to the amount of virus produced.
as §1
Three-day-old phytohemagglutinin-stimulated PBM cells 10^6 cells/ml) from hepatitis B and HIV-1 seronegative healthy donors are infected with HIV-1 (strain LAV) at a concentration of about 100 times the 50% tissue culture infectious dose (TICD 50) per ml and cultured in the presence and absence of various concentrations of antiviral compounds.
Approximately one hour after infection, the medium, with the compound to be tested (2 times the final concentration in medium) or without compound, is added to the flasks (5 ml; final volume 10 ml).
The cells are exposed to the virus (about 2×10^5 dpm/ml, as determined by reverse transcriptase assay) and then placed in a CO2 incubator. HIV-1 (strain LAV) is obtained from the Center for Disease Control, Atlanta, Ga. The methods used for culturing the PBM cells, harvesting the virus and determining the reverse transcriptase activity are those described by McDougal et al. (J. Immun. Meth. 76, 171-183, 1985) and Spiral et al. (J. Clin. Meth. 25, 97-99, 1987), except that flngizone was not included in the medium (see Schinazi, et al., Antimicrob. Agents Chemother. 32, 1784-1787 (1988); Id., 34:1061-1067 (1990)).
On day 6, the cells and supernatant are transferred to a 15 ml tube and centrifuged at about 900 g for 10 minutes. Five ml of supernatant are removed and the virus concentrated by centrifugation at 40,000 rpm for 30 minutes (Beckman 70.1 Ti rotor). The solubilized virus pellet is processed for determination of the levels of reverse transcriptase. Results are expressed in dpm/ml of sampled supernatant. Virus from smaller volumes of supernatant (1 ml) can also be concentrated by centrifugation prior to solubilization and determination of reverse transcriptase levels.

[3] = system: Vero cells; assay: Cytotoxicity in Vero cells; assay type: cell-based
Method: as §1, with “[…].;” for “R. F.; McMillan, A.;”, “[…].;” for “A.; Sommadossi, J.-P.;”, “[…].” for “W.-B.; Liotta, D. C.”, “[…].;” for “R. F.; Sommadossi, J.-P.; Saalmann, V.;”, “[…].;” for “M.-Y.; Hart, G.;”

[4] = system: PBM cells; assay: Cytotoxicity in uninfected human PBM cells; assay type: cell-based
Method: (§2) Antiviral and cytotoxicity assays: Anti-HIV-1 activity of the compounds is determined in human peripheral blood mononuclear (PBM) cells as described previously (Schinazi, […].; Cannon, D.; Mathis, R.; Lloyd, R. M. Jr.; Peck, […].; St. Clair, M.; Wilson, J.; Furman, P. A.; Painter, G.; Choi, […]. Antimicrob. Agents Chemother. 1992, 36, 2423; Schinazi, […].; Cannon, D.; Xie, […].; Smith, G.; Hahn, E. Antimicrob. Agents Chemother. 1990, 34, 1061). Stock solutions (20-40 mM) of the compounds were prepared in sterile DMSO and then diluted to the desired concentration in complete medium. […] Cells are infected with the prototype HIV-1LAI at a multiplicity of infection of 0.01. Virus obtained from the cell supernatant are quantitated on day 6 after infection by a reverse transcriptase assay using poly(rA)n.oligo(dT)12-18 as template-primer. […] The toxicity of the compounds can be assessed in human PBM, CEM, and Vero cells. The antiviral EC50 and cytotoxicity IC50 is obtained from the concentration-response curve using the median effective method described by Chou and Talalay (Adv. Enzyme Regul. 1984, 22, 27). Mitogen stimulated uninfected human PBM cells (3.8×10^5 cells/ml) can be cultured in the presence and absence of drug under similar conditions as those used for the antiviral assay described above. The cells are counted after 6 days using a hemacytometer and the trypan blue exclusion method, as described by Schinazi et al., Antimicrobial Agents and Chemotherapy, 22(3), 499 (1982).

[5] = Cytotoxicity in Vero cells; assay type: cell-based; conditions: African green monkey, Vero cells
Method: as §1, with “[…].;” for “R. F.; McMillan, A.;”, “[…].;” for “A.; Sommadossi, J.-P.;”, “[…].” for “W.-B.; Liotta, D. C.”, “[…].;” for “R. F.; Sommadossi, J.-P.; Saalmann, V.;”, “[…].;” for “M.-Y.; Hart, G.;”

[6] = Cytotoxicity in uninfected human PBM cells; assay type: cell-based; conditions: human, mitogen-stimulated uninfected human PBM cells; PMC Cells
Method: as §2

[7] = molecular target: HIV-1 heterodimer p66/51 reverse transcriptase (Human immunodeficiency virus type 1 group M subtype B, UniProt P04585); assay: HIV-1 reverse transcriptase extension assay, r(I)n.(dC)12-18 template-primer
Method: Extension assays were performed using a r(I)n.(dC)12-18 homopolymer template-primer (Pharmacia, Piscataway, N.J.) and the HIV-1 heterodimer p66/51 reverse transcriptase (RT, Biotechnology General, Rehovat, Israel). The standard reaction mixture (100 μl) contained 100 mM Tris hydrochloride (pH 8.0), 50 mM KCl, 2 mM MgCl2, 0.05 units/ml r(I)n.(dC)12-18, 5 mM DTT, 100 μg/ml Bovine Serum Albumin, and 1 μM ^3H-dCTP (23 Ci/mmol). 3TCTP (0.001-50 μM) was the positive control. Compounds were incubated 1 hr at 37° C. in the reaction mixture with 1 unit HIV-1 RT. The reaction was stopped with the addition of an equal volume of cold 10% TCA/0.05% sodium pyrophosphate and incubated 30 minutes at 4° C. The precipitated nucleic acids were harvested onto fiberglass filter paper using a Packard manual harvester (Meriden, Conn.). The radiolabel uptake in counts per minute (cpm) was determined using a Packard 9600 Direct Beta counter.

[8] = Human immunodeficiency virus 1, PBMC

EC50 [2] [µM] | EC90 [2] [µM] | EC50 [2, 8] [µM] | EC90 [2, 8] [µM] | SMILES | IC50 [1] [µM] | IC50 [3] [µM] | IC50 [4] [µM] | IC50 [5] [µM] | IC50 at 6 days [6] [µM] | EC50 [7] [µM]
> 100 | > 100 | – | – | Nc1ccn([C@@H]2O[C@@H](CO)C=C2F)c(=O)n1 [Compound 323, 1-(2,3-dideoxy-2-fluoro-α-L-gycero-pent-2-enofuranosyl)cytosine] | > 100 | > 100 | > 100 | – | – | –
– | – | 0.004 | 0.04 | Cc1cn([C@H]2C[C@H](N=[N+]=[N-])[C@@H](CO)O2)c(=O)[nH]c1=O [AZT, 3′-azido-3′-deoxythymidine, reference compound] | – | – | – | 29 | > 100 | –
– | – | – | – | Nc1nc(=O)n(C2C=CC(COP(=O)(O)OP(=O)(O)OP(=O)(O)O)C2)cc1F (mixture of isomers) [(±)-carbocyclic-D4FC-TP, cis-(±)-Carbocyclic 2′,3′-didehydro-2′,3′-dideoxy-5-fluorocytidine 5′-triphosphate, triethylhydrogenammonium salt] | – | – | – | – | – | 0.4
1.5 | 15.1 | – | – | Nc1ncnc2c1ncn2[C@H]1O[C@@H](CO)C=C1F [Compound 335, 9-(2,3-dideoxy-2-fluoro-β-L-gycero-pent-2-enofuranosyl)adenine] | > 100 | > 100 | > 100 | – | – | –
> 100 | > 100 | – | – | O=c1ccn([C@H]2O[C@@H](CO)C=C2F)c(=O)[nH]1 [Compound 316, 1-(2,3-Dideoxy-2-fluoro-(α,β)-L-gycero-pent-2-eno-furanosyl)uracil] | > 100 | > 100 | > 100 | – | – | –
> 100 | > 100 | – | – | O=c1[nH]cnc2c1ncn2[C@H]1O[C@@H](CO)C=C1F [Compound 337, 9-(2,3-dideoxy-2-fluoro-β-L-gycero-pent-2-enofuranosyl)hypoxanthine] | > 100 | > 100 | > 100 | – | – | –
0.51 | 4.3 | – | – | Nc1ccn([C@H]2O[C@@H](CO)C=C2F)c(=O)n1 [Compound 322, 1-(2,3-dideoxy-2-fluoro-β-L-gycero-pent-2-enofuranosyl)cytosine] | > 100 | > 100 | > 100 | – | – | –
47.6 | 332 | – | – | Nc1ncnc2c1ncn2[C@@H]1O[C@@H](CO)C=C1F [Compound 336, 9-(2,3-dideoxy-2-fluoro-α-L-gycero-pent-2-enofuranosyl)adenine] | > 100 | > 100 | > 100 | – | – | –
> 100 | > 100 | – | – | O=c1[nH]cnc2c1ncn2[C@@H]1O[C@@H](CO)C=C1F [Compound 338, 9-(2,3-dideoxy-2-fluoro-α-L-gycero-pent-2-enofuranosyl)hypoxanthine] | > 100 | – | > 100 | – | – | –
> 100 | > 100 | – | – | Cc1cn([C@H]2O[C@@H](CO)C=C2F)c(=O)[nH]c1=O [Compound 318, 1-(2,3-Dideoxy-2-fluoro-(α,β)-L-gycero-pent-2-eno-furanosyl)thymine] | > 100 | > 100 | > 100 | – | – | –
